Laboratory results reported in patent US10202374B2, “6-aryl-4-phenylamino-quinazoline analogs as phosphoinositide-3-kinase inhibitors” (COUNCIL OF SCIENTIFIC & INDUSTRIAL RESEARCH, priority 2014, dated 2019).

Assays:
A-375 (melanoma) cells = experiment: MTT cytotoxicity assay, A375; assay type: cell-based; settings: Homo sapiens, 48 h treatment, read-out: Anticancer activity IC50 A375
Procedure: (§1) Compounds proposed in present invention were evaluated for their cytotoxic effect against panel of 5 cancer cell line viz. Panc-1 (pancreatic cancer), MCF-7 (breast cancer), PC-3 (prostate), HL-60 (leukemia) and A-375 (melanoma) using MTT assay. In each well of a 96-well plate, 3×10^3 cells were grown in 100 μL of medium. After 24 h, each test molecules were added to achieve a final concentration of 10 to 0.01 μmol/L, respectively. After 48 h of treatment, 20 μL of 2.5 mg/mL MTT (Organics Research, Inc.) solution in phosphate buffer saline was added to each well. […], supernatant was removed and formazan crystals were dissolved in 200 μL of DMSO. Absorbance was then measured at 570 nm using an absorbance plate reader (Bio-Rad Microplate Reader). Data are expressed as the percentage of viable cells in treated relative to non-treated conditions. Each experiment was repeated thrice and data was expressed as mean±SD of three independent experiments (Mordant, P. et al., Mol. Cancer Ther. 2010, 9, 358).

[1] = system: PC-3 (prostate cancer) cells; experiment: MTT cytotoxicity assay, PC-3; assay type: cell-based; settings: Homo sapiens, 48 h treatment, read-out: Anticancer activity IC50 PC-3
Procedure: as §1

[2] = system: MCF-7 (breast cancer) cells; experiment: MTT cytotoxicity assay, MCF-7; assay type: cell-based; settings: Homo sapiens, MCF7, 48 h treatment, read-out: Anticancer activity IC50 MCF-7
Procedure: as §1

PI3K-β = PI3K-β (Homo sapiens, UniProt P42338); experiment: PI3K-β assay (ADP-Glo); assay type: biochemical; settings: for IC50: read-out: PI3K inhibition IC50 -β; for Fold-selectivity for PI3K-α with respect to -β: α versus β isoform
Procedure: The enzyme is assayed for 60 min after which 20 ul of ADP-Glo reagent is added. After a further incubation of 40 min, 40 ul of kinase detection Buffer is added. The assays are incubated for 40 min and then read on PerkinElmer Envision for 1 sec/well.

PI3K-δ = PI3K-δ (Homo sapiens, UniProt O00329); experiment: PI3K-δ assay (ADP-Glo); assay type: biochemical; settings: for IC50: read-out: PI3K inhibition IC50 -δ; for Fold-selectivity for PI3K-α with respect to -δ: α versus δ isoform
Procedure: Compounds proposed in present invention were evaluated for their inhibitory activity on phosphoinositide-3-kinase-alpha and other isoforms (beta, gamma and delta). […] The protocols used for these bioassays are as follows:
The enzyme is assayed for 120 min after which 20 ul of ADP-Glo reagent is added. After a further incubation of 40 min, 40 ul of Kinase Detection Buffer is added. The assays are incubated for 40 min and then read on PerkinElmer Envision for 1 sec/well.

PI3K-γ = PI3K-γ (Homo sapiens, UniProt P48736); experiment: PI3K-γ assay (ADP-Glo); assay type: biochemical; settings: for IC50: read-out: PI3K inhibition IC50 -γ; for Fold-selectivity for PI3K-α with respect to -γ: α versus γ isoform
Procedure: The enzyme is assayed for 75 min after which 20 ul of ADP-Glo reagent is added. After a further incubation of 40 min, 40 ul of Kinase Detection Buffer is added. The assays are incubated for 40 min and then read on PerkinElmer Envision for 1 sec/well.

HL-60 (leukemia) cells = experiment: MTT cytotoxicity assay, HL-60; assay type: cell-based; settings: Homo sapiens, 48 h treatment, read-out: Anticancer activity IC50 HL-60
Procedure: as §1

[3] = system: Panc-1 (pancreatic cancer) cells; experiment: MTT cytotoxicity assay, Panc-1; assay type: cell-based; settings: Homo sapiens, 48 h treatment, read-out: Anticancer activity IC50 Panc-1
Procedure: as §1

PI3K-α = PI3K-α (Homo sapiens, UniProt P42336); experiment: PI3K-α assay (ADP-Glo); assay type: biochemical; settings: for % Inhibition of PI3K-α at 0.5 μM / inhibition at 0.5 µM: preliminary screening; for IC50: read-out: PI3K inhibition IC50 -α
PI3K-α, sequence (P42336 whole entry): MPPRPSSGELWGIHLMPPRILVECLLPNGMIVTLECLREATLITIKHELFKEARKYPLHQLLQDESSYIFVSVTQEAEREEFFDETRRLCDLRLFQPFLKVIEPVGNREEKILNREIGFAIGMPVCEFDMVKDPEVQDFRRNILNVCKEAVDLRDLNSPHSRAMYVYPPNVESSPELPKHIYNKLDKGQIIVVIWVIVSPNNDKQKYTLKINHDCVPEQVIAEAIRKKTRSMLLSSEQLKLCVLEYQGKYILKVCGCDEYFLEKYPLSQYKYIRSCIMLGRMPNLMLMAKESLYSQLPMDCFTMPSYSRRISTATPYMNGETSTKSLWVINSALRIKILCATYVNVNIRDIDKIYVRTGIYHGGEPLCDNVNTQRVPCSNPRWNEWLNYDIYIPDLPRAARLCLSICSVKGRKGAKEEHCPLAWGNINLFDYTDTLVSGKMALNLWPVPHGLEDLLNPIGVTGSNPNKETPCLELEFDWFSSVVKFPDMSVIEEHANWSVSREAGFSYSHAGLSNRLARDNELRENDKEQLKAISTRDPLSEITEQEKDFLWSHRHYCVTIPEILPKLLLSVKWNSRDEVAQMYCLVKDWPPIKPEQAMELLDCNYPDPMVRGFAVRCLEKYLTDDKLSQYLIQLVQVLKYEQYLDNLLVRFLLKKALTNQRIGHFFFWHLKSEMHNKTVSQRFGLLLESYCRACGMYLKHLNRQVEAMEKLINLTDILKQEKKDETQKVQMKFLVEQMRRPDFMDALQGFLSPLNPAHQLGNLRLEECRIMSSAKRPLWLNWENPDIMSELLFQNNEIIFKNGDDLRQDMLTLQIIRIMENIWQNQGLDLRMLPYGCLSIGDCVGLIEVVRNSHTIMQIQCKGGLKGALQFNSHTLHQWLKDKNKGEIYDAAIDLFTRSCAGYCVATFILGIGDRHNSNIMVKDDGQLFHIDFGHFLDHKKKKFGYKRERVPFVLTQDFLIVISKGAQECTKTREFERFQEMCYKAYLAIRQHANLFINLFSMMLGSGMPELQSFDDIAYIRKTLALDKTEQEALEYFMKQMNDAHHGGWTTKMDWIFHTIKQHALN
PI3K-α, sequence (P27986 whole entry partner): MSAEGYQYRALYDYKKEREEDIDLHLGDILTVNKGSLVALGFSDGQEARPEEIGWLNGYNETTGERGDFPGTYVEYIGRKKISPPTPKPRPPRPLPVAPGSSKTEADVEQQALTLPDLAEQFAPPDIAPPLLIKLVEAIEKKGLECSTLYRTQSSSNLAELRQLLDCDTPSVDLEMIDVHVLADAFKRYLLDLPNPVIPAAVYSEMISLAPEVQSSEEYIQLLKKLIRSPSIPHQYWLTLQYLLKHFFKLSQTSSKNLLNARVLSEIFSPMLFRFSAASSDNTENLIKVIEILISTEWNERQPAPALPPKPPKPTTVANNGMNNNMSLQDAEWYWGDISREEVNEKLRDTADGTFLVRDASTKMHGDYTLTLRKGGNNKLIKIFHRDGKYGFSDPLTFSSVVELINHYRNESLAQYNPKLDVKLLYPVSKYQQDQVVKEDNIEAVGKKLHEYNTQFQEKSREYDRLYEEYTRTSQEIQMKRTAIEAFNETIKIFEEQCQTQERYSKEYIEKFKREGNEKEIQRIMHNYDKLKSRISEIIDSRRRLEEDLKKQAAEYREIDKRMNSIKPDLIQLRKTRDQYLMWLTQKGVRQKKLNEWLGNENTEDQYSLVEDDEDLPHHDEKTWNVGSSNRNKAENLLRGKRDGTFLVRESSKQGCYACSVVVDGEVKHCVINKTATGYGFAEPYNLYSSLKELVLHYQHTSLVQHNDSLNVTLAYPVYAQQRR
Procedure: The enzyme is assayed for 80 min after which 20 ul of ADP-Glo reagent is added. After a further incubation of 40 min, 40 ul of Kinase Detection Buffer is added. The assays are incubated for 40 min and then read on PerkinElmer Envision for 1 sec/well.

PI3K-δ, sequence (O00329 whole entry, species assumed, canonical isoform): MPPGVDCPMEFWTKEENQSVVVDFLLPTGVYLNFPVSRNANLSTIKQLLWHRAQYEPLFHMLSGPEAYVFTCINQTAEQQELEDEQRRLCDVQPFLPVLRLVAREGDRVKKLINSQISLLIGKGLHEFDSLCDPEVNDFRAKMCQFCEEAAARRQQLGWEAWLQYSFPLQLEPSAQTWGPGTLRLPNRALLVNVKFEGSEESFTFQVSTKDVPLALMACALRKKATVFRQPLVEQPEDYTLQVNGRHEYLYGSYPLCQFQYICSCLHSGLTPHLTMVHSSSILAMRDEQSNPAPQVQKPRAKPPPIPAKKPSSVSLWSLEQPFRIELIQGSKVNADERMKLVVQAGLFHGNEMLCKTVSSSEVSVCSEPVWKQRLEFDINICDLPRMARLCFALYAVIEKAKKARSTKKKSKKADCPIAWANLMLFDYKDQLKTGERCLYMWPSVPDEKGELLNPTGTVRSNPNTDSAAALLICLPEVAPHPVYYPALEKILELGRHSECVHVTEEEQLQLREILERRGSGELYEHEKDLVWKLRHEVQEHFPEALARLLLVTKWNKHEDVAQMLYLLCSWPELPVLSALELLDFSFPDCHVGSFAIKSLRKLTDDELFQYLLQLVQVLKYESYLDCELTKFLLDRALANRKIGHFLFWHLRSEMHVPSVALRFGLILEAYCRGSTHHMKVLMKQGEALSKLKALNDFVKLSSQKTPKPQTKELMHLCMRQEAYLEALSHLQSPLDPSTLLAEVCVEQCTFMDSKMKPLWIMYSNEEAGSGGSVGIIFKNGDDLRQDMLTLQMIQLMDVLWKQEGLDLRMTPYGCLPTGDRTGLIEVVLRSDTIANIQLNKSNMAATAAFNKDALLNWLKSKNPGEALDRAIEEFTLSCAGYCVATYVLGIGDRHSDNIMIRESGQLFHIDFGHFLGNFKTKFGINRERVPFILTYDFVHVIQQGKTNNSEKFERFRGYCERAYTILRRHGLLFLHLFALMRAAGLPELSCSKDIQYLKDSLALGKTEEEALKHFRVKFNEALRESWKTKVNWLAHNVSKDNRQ
PI3K-δ, sequence (P27986 whole entry partner, species assumed, canonical isoform): as the sequence (P27986 whole entry partner) above
PI3K-β, sequence (P42338 whole entry, species assumed, canonical isoform): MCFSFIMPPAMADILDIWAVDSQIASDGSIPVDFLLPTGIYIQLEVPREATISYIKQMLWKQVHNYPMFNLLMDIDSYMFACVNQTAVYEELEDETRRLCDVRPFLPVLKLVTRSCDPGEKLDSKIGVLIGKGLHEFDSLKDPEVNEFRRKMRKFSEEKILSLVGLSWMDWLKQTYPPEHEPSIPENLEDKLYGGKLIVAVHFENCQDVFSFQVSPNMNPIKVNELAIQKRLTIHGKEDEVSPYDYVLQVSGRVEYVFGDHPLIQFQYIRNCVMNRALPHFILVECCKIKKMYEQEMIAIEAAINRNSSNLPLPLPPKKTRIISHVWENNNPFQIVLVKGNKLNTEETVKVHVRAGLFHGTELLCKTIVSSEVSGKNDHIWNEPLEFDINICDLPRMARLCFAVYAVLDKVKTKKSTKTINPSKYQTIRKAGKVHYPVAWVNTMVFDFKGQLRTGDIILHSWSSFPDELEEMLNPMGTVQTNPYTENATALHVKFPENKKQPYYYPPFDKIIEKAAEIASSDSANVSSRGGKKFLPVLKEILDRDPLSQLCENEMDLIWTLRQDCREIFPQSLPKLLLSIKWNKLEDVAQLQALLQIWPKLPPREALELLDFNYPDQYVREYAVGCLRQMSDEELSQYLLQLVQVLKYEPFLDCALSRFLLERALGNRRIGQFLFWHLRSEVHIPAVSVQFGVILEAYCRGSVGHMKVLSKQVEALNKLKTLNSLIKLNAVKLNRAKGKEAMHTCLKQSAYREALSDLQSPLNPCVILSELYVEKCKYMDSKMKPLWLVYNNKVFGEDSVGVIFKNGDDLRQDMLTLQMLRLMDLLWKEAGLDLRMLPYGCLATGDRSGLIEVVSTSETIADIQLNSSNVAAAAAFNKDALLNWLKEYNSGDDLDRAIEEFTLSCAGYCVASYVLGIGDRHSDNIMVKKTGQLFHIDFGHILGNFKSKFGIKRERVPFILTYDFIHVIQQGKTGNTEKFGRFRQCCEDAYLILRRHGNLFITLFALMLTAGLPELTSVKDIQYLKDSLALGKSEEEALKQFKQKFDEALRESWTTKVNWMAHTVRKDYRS
PI3K-β, sequence (P27986 whole entry partner, species assumed, canonical isoform): as the sequence (P27986 whole entry partner) above
PI3K-γ, sequence (P48736 whole entry, species assumed, canonical isoform): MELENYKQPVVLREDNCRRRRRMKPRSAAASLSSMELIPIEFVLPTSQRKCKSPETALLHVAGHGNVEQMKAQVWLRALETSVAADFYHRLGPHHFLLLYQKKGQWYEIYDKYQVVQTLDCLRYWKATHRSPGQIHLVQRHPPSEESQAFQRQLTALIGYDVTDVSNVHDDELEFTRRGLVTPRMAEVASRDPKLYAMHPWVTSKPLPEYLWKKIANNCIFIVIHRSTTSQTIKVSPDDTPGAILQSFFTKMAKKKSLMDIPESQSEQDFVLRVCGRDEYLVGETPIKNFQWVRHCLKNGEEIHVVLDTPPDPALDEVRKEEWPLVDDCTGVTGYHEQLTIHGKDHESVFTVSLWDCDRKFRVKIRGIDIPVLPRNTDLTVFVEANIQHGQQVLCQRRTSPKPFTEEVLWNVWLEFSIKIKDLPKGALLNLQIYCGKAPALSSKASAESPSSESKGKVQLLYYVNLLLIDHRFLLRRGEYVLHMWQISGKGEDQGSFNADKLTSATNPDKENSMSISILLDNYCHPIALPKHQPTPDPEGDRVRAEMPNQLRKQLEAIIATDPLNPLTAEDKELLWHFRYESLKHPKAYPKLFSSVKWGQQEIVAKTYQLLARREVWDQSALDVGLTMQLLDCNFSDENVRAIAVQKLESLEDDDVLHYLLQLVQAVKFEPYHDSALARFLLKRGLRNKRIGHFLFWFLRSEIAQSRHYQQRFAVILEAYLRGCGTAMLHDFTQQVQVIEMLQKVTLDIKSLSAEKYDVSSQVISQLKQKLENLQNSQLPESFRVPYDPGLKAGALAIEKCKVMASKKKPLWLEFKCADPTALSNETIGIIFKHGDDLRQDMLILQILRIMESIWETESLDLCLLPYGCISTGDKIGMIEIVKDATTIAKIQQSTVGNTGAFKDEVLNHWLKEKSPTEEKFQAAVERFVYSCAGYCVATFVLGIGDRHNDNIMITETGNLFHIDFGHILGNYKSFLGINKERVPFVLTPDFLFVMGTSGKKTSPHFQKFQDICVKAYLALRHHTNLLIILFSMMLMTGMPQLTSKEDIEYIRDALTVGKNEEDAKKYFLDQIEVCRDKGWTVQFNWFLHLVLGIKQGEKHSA

Q: For `N#CCc1ccc(Nc2ncnc3ccc(-c4ccc5c(c4)OCO5)cc23)cc1` [Compound 21, 6-(benzo[d][1,3]dioxol-5-yl)-4-(4-cyanomethyl)phenylamino-quinazoline], which IC50 (A-375 (melanoma) cells) is on record?
A: Its IC50 is 24 µM.

Q: And the IC50 [1]?
A: The IC50 was 7 µM.

Q: And the IC50 [2]?
A: The IC50 was 34 µM.

Q: And the IC50 (PI3K-β)?
A: Its IC50 is over 10 µM.

Q: What about the “Fold-selectivity for PI3K-α with respect to -β” value (shortened to “Fold-selectivity for PI3K-α … -β”) (PI3K-β) of the same compound?
A: Its value is over 31.1 fold.

Q: And the IC50 (PI3K-δ)?
A: The IC50 was over 10 µM.

Q: What about the “Fold-selectivity for PI3K-α with respect to -δ” value (from here on “Fold-selectivity for PI3K-α … -δ”) (PI3K-δ) of the same compound?
A: Its value is over 31.1 fold.

Q: What about the IC50 (PI3K-γ) of the same compound?
A: The IC50 was 0.19 µM.

Q: What about the “Fold-selectivity for PI3K-α with respect to -γ” value (“Fold-selectivity for PI3K-α … -γ” for short) (PI3K-γ) of the same compound?
A: The value was 0.6 fold.

Q: What about the IC50 (HL-60 (leukemia) cells) of the same compound?
A: The IC50 was 27 µM.

Q: And the IC50 [3]?
A: The IC50 was 33 µM.

Q: What about the “% Inhibition of PI3K-α at 0.5 μM” value (PI3K-α) of the same compound?
A: The value was 48.6%.

Q: And the inhibition at 0.5 µM (PI3K-α)?
A: The inhibition at 0.5 µM was over 40%.

Q: And the IC50 (PI3K-α)?
A: Its IC50 is 0.321 µM.

Q: How did the IC50 (A-375 (melanoma) cells) turn out when `N#CCc1ccc(Nc2ncnc3ccc(-c4ccc5[nH]ccc5c4)cc23)cc1` [Compound 26, 6-(1H-indol-5-yl)-4-(4-cyanomethyl)phenylamino-quinazoline] was run?
A: The IC50 was 31 µM.

Q: What about the IC50 [1] of the same compound?
A: Its IC50 is 24 µM.

Q: And the IC50 [2]?
A: The IC50 was 7 µM.

Q: And the IC50 (PI3K-β)?
A: Its IC50 is over 10 µM.

Q: And the “Fold-selectivity for PI3K-α … -β” value (PI3K-β)?
A: Its value is over 49.7 fold.

Q: And the IC50 (PI3K-δ)?
A: The IC50 was over 10 µM.

Q: What about the “Fold-selectivity for PI3K-α … -δ” value (PI3K-δ) of the same compound?
A: The value was over 49.7 fold.

Q: What about the IC50 (PI3K-γ) of the same compound?
A: Its IC50 is 0.75 µM.

Q: And the “Fold-selectivity for PI3K-α … -γ” value (PI3K-γ)?
A: The value was 3.7 fold.

Q: What about the IC50 (HL-60 (leukemia) cells) of the same compound?
A: The IC50 was 18 µM.

Q: What about the IC50 [3] of the same compound?
A: The IC50 was 16 µM.

Q: And the “% Inhibition of PI3K-α at 0.5 μM” value (PI3K-α)?
A: Its value is 47.5%.

Q: And the inhibition at 0.5 µM (PI3K-α)?
A: The inhibition at 0.5 µM was over 40%.

Q: And the IC50 (PI3K-α)?
A: Its IC50 is 0.201 µM.

Q: Which results are given for `N#CCc1ccc(Nc2ncnc3ccc(-c4ccncc4)cc23)cc1` [Compound 28, 6-(pyridin-4-yl)-4-(4-cyanomethyl)phenylamino-quinazoline]?
A: IC50 (A-375 (melanoma) cells): 35 µM; IC50 [1]: 76 µM; IC50 [2]: 32 µM; IC50 (PI3K-β): > 10 µM; Fold-selectivity for PI3K-α with respect to -β (PI3K-β): >14.2 fold; IC50 (PI3K-δ): > 10 µM; Fold-selectivity for PI3K-α with respect to -δ (PI3K-δ): >14.2 fold; IC50 (PI3K-γ): 0.36 µM; Fold-selectivity for PI3K-α with respect to -γ (PI3K-γ): 0.5 fold; IC50 (HL-60 (leukemia) cells): 32 µM; IC50 [3]: 39 µM; % Inhibition of PI3K-α at 0.5 μM (PI3K-α): 45.6%; inhibition at 0.5 µM (PI3K-α): > 40%; IC50 (PI3K-α): 0.704 µM

Q: How did the IC50 (A-375 (melanoma) cells) turn out when `N#CCc1ccc(Nc2ncnc3ccc(-c4cncc5ccccc45)cc23)cc1` [Compound 29, 6-(isoquinolin-4-yl)-4-(4-cyanomethyl)phenylamino-quinazoline] was run?
A: Its IC50 is 12 µM.

Q: What about the IC50 [1] of the same compound?
A: Its IC50 is 9 µM.

Q: And the IC50 [2]?
A: Its IC50 is 12 µM.

Q: What about the IC50 (PI3K-β) of the same compound?
A: The IC50 was over 20 µM.

Q: And the “% inhibition of PI3K-β” value (PI3K-β; up to 20 μM)?
A: Its value is 0%.

Q: What about the “Fold-selectivity for PI3K-α … -β” value (PI3K-β) of the same compound?
A: Its value is over 133 fold.

Q: And the IC50 (PI3K-δ)?
A: The IC50 was 0.88 µM.

Q: And the “Fold-selectivity for PI3K-α … -δ” value (PI3K-δ)?
A: The value was 5.9 fold.

Q: And the IC50 (PI3K-γ)?
A: The IC50 was 8.44 µM.

Q: What about the “Fold-selectivity for PI3K-α … -γ” value (PI3K-γ) of the same compound?
A: The value was 56 fold.

Q: And the IC50 (HL-60 (leukemia) cells)?
A: Its IC50 is 10 µM.

Q: What about the IC50 [3] of the same compound?
A: Its IC50 is 9 µM.

Q: What about the “% Inhibition of PI3K-α at 0.5 μM” value (PI3K-α) of the same compound?
A: The value was 48.8%.

Q: And the inhibition at 0.5 µM (PI3K-α)?
A: Its inhibition at 0.5 µM is over 40%.

Q: What about the IC50 (PI3K-α) of the same compound?
A: The IC50 was 0.15 µM.
